Test results taken from ChEMBL document CHEMBL2046386, “Potent and selective aminopyrimidine-based B-Raf inhibitors with favorable physicochemical and pharmacokinetic properties” (J Med Chem, 2012).
≈ marks a conversion by molar mass, not a printed value. One block for each compound: values may come before it.

Assays:
[1] = biological target: T1, Serine/threonine-protein kinase B-raf (Homo sapiens, UniProt P15056, V600E); experiment: Inhibition of His6X-tagged human B-raf V600E mutant expressed in baculovirus infected insect cells coexpressing […] using [gamma33P]ATP after 60 mins by scintillation counting
T1 sequence (P15056 2-766 V600E limits assumed): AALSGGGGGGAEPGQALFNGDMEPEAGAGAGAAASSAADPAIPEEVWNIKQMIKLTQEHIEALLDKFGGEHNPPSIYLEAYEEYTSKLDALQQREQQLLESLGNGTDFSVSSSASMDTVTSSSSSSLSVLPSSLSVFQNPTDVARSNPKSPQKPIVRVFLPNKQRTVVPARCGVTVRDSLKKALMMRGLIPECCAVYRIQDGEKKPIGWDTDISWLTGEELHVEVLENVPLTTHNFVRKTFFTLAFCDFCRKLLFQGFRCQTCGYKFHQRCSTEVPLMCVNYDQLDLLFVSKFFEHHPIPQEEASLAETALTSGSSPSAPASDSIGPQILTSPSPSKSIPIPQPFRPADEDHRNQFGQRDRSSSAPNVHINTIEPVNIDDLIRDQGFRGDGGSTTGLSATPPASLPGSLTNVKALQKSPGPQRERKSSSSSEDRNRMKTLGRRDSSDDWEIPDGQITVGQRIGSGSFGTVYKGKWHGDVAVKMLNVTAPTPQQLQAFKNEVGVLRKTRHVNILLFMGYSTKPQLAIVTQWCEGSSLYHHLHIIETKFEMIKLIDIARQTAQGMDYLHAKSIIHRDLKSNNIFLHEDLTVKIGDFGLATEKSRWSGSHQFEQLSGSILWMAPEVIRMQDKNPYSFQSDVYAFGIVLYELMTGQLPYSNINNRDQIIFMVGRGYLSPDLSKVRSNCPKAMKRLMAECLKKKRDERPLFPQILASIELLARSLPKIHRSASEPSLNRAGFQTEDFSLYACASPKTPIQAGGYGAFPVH

[2] = biological target: T1, Serine/threonine-protein kinase B-raf; experiment: Inhibition of B-raf V600E mutant-mediated Erk phosphorylation in human MALM-3M cells by fluorometric analysis; assay type: cell-based
[3] = Cmax in mouse at 1 mg/kg, po dosed as crystalline suspension in 20%HPBCD vehicle (20% hydroxypropyl-beta-cyclodextrin/80% water); assay type: ADME, organism-based; design: dose 1 mg/kg, route oral; settings: in vivo
[4] = system: Mus musculus; experiment: Toxicity in NCr nude mouse xenografted with human COLO205 cells expressing B-raf V600E mutant assessed as adverse effects; assay type: organism-based, COLO 205; settings: in vivo
[5] = AUC in mouse at 50 mg/kg, po dosed as crystalline suspension in 20%HPBCD vehicle (20% hydroxypropyl-beta-cyclodextrin/80% water); assay type: ADME, organism-based; design: dose 50 mg/kg, route oral; settings: plasma
[6] = organism: Homo sapiens; experiment: Selectivity index, ratio of IC50 for wild-type B-raf to IC50 for human Braf V600E mutant
[7] = system: HT-29; experiment: Antiproliferative activity against human HT-29 cells expressing B-raf V600E mutant and high level of EGFR; assay type: functional, cell-based
[8] = Oral bioavailability in mouse at 30 mg/kg dosed as crystalline suspension in 20%HPBCD vehicle (20% hydroxypropyl-beta-cyclodextrin/80% water); assay type: ADME, organism-based; settings: in vivo
[9] = Oral bioavailability in mouse at 30 mg/kg dosed as crystalline suspension in 20%HPBCD vehicle (20% hydroxypropyl-beta-cyclodextrin/80% water); settings: in vivo
[10] = Thermodynamic solubility of the compound at 0.5 mg/ml after 24 hrs by shake flask method at pH 6.5; assay type: physicochemical; settings: buffer, read-out: Therm_solubility
[11] = biological target: Serine/threonine-protein kinase B-raf (Homo sapiens, UniProt P15056); experiment: Inhibition of wild type B-raf in presence of 1 mM ATP
Chain of Serine/threonine-protein kinase B-raf (Homo sapiens, UniProt P15056) (P15056 whole entry): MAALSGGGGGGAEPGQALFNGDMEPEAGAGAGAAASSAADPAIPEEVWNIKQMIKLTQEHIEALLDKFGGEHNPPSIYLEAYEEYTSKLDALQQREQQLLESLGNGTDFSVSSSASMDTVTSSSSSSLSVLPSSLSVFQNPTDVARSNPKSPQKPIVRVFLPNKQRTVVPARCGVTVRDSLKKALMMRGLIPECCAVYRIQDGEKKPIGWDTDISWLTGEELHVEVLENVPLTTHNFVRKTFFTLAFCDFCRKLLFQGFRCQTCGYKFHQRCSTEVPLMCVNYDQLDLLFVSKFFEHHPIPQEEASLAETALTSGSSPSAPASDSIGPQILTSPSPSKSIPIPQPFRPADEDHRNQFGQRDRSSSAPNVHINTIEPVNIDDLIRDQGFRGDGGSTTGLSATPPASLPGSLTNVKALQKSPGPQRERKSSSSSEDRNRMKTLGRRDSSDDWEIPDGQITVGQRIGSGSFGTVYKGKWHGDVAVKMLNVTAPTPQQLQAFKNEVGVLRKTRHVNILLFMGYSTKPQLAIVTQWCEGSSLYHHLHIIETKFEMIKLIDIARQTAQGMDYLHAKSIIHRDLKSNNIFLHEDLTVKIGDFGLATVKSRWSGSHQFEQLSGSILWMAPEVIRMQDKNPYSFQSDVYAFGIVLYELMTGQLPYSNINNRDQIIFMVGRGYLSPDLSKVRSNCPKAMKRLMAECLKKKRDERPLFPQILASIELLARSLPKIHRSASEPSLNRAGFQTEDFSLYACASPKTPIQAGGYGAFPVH

[12] = Oral bioavailability in rat at 5 mg/kg dosed as crystalline suspension in 20%HPBCD vehicle (20% hydroxypropyl-beta-cyclodextrin/80% water); assay type: ADME, organism-based; settings: in vivo
[13] = Plasma protein binding in mouse; assay type: ADME, cell-free; settings: read-out: PPB (converted)
[14] = Time-dependent inhibition of cytochrome P450; assay type: ADME
[15] = AUC in mouse at 1 mg/kg, po dosed as crystalline suspension in 20%HPBCD vehicle (20% hydroxypropyl-beta-cyclodextrin/80% water); assay type: ADME, organism-based; design: dose 1 mg/kg, route oral; settings: plasma
[16] = AUC in rat at 25 mg/kg, po dosed as crystalline suspension in 20%HPBCD vehicle (20% hydroxypropyl-beta-cyclodextrin/80% water); assay type: ADME, organism-based; design: dose 25 mg/kg, route oral; settings: plasma
[17] = Cmax in mouse at 50 mg/kg, po dosed as crystalline suspension in 20%HPBCD vehicle (20% hydroxypropyl-beta-cyclodextrin/80% water); assay type: ADME, organism-based; design: dose 50 mg/kg, route oral; settings: in vivo
[18] = system: RKO; experiment: Antiproliferative activity against PTEN-deficient human RKO cells expressing B-raf V600E mutant and high level of EGFR; assay type: functional, cell-based
[19] = Cmax in rat at 5 mg/kg, po dosed as crystalline suspension in 20%HPBCD vehicle (20% hydroxypropyl-beta-cyclodextrin/80% water); assay type: ADME, organism-based; design: dose 5 mg/kg, route oral; settings: in vivo
[20] = system: COLO 205; experiment: Antitumor activity against human COLO205 cells expressing B-raf V600E mutant xenografted in po dosed NCr nude mouse assessed as decrease in tumor volume administered once daily for 21 days measured twice a week up to 21 days; assay type: functional; settings: for ED50 / ED90: Mus musculus, COLO 205, po, 504 h
[21] = Clearance in rat at 1 mg/kg, iv dosed as crystalline suspension in 20%HPBCD vehicle (20% hydroxypropyl-beta-cyclodextrin/80% water); assay type: ADME, organism-based; design: dose 1 mg/kg, route intravenous; settings: in vivo
[22] = biological target: RAF proto-oncogene serine/threonine-protein kinase (Homo sapiens, UniProt P04049); experiment: Inhibition of wild type C-raf in presence of 1 mM ATP
Chain of RAF proto-oncogene serine/threonine-protein kinase (P04049 whole entry): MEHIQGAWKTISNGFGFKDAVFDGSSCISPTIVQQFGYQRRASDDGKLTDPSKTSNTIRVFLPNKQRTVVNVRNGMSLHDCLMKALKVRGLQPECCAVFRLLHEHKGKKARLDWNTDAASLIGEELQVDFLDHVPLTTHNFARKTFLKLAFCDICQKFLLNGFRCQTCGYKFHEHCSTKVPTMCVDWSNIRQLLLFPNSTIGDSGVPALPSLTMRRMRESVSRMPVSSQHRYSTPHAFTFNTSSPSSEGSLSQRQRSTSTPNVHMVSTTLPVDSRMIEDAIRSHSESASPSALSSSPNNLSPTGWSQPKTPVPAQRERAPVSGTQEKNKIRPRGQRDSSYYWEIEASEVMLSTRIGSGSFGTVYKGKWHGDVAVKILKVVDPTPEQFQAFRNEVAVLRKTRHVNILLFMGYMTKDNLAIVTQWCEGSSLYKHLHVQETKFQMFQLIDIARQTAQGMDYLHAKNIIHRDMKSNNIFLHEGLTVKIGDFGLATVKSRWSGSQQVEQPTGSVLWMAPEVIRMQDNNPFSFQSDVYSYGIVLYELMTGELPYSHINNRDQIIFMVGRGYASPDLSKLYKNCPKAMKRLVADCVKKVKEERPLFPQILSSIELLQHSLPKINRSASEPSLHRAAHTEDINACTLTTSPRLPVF

[23] = biological target: Cytochrome P450 2C9 (Homo sapiens, UniProt P11712); experiment: Inhibition of CYP2C9; assay type: ADME
Chain of Cytochrome P450 2C9 (P11712 whole entry): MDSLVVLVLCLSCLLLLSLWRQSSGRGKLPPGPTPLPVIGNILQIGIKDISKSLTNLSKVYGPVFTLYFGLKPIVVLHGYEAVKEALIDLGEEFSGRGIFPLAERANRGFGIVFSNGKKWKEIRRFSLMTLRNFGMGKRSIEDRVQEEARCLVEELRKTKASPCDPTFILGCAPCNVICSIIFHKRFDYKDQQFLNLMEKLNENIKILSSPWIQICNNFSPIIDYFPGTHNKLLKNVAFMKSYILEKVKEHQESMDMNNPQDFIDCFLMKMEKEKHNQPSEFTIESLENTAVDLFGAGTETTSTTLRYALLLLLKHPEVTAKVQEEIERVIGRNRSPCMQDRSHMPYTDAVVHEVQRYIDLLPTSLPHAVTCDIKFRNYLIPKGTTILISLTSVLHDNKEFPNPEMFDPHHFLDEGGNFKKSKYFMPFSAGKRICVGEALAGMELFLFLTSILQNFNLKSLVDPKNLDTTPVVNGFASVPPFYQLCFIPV

[24] = Oral bioavailability in mouse at 1 mg/kg dosed as crystalline suspension in 20%HPBCD vehicle (20% hydroxypropyl-beta-cyclodextrin/80% water); assay type: ADME, organism-based; settings: in vivo
[25] = Clearance in mouse at 2.5 mg/kg, iv; assay type: ADME, organism-based; design: dose 2.5 mg/kg, route intravenous; settings: in vivo
[26] = Volume of distribution at steady state in mouse at 2.5 mg/kg, iv; assay type: ADME, organism-based; design: dose 2.5 mg/kg, route intravenous; settings: in vivo, read-out: Vdss
[27] = AUC in mouse at 10 mg/kg, po dosed as crystalline suspension in 20%HPBCD vehicle (20% hydroxypropyl-beta-cyclodextrin/80% water); assay type: ADME, organism-based; design: dose 10 mg/kg, route oral; settings: plasma
[28] = Dissociation constant, pKa of the compound at basic pH; assay type: physicochemical
[29] = Antiproliferative activity against human A375.X1 cells expressing B-raf V600E mutant; assay type: functional, cell-based
[30] = Oral bioavailability in mouse at 10 mg/kg dosed as crystalline suspension in 20%HPBCD vehicle (20% hydroxypropyl-beta-cyclodextrin/80% water); assay type: ADME, organism-based; settings: in vivo
[31] = biological target: Voltage-gated inwardly rectifying potassium channel KCNH2 (Homo sapiens, UniProt Q12809); experiment: Inhibition of human Erg
Chain of Voltage-gated inwardly rectifying potassium channel KCNH2 (Q12809 whole entry): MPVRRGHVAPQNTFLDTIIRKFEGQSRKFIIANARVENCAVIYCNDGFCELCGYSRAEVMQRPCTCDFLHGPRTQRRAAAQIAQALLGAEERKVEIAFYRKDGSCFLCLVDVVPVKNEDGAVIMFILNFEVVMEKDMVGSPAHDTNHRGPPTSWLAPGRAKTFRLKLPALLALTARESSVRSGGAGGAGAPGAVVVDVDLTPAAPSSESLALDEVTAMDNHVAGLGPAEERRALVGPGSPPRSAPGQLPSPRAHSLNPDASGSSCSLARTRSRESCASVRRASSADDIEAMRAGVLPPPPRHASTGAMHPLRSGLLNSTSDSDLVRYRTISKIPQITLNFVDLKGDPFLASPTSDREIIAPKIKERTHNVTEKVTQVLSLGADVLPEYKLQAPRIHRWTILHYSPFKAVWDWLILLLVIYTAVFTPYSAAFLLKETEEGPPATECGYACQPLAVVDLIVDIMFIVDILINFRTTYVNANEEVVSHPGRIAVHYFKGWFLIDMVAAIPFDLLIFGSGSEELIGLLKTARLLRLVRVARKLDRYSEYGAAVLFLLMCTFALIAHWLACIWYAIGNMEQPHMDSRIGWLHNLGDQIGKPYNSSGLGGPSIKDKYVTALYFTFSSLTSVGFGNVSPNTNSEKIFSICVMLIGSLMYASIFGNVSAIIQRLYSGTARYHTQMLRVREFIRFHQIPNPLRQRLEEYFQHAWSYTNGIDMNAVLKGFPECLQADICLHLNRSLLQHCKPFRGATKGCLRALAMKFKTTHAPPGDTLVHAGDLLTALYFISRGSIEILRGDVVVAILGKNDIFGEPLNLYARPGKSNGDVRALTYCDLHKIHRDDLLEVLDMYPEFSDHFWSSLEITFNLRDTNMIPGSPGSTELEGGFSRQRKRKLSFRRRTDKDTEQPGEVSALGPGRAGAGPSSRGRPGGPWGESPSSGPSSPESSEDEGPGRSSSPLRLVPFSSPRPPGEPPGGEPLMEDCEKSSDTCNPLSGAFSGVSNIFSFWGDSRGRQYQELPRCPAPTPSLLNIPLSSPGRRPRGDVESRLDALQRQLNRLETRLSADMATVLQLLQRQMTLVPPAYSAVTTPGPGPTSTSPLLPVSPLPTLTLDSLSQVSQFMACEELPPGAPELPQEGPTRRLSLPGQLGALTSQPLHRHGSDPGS

[32] = AUC in mouse at 30 mg/kg, po dosed as crystalline suspension in 20%HPBCD vehicle (20% hydroxypropyl-beta-cyclodextrin/80% water); assay type: ADME, organism-based; design: dose 30 mg/kg, route oral; settings: plasma
[33] = Oral bioavailability in rat at 25 mg/kg dosed as crystalline suspension in 20%HPBCD vehicle (20% hydroxypropyl-beta-cyclodextrin/80% water); assay type: ADME, organism-based; settings: in vivo
[34] = system: NCI-H226; experiment: Antiproliferative activity against human NCI-H226 cells expressing wild-type B-raf; assay type: functional, cell-based
[35] = Thermodynamic solubility of the compound at 0.5 mg/ml after 24 hrs by shake flask method at pH 1.2; assay type: physicochemical; settings: buffer, read-out: Therm_solubility
[36] = Inhibition of cytochrome P450; assay type: ADME
[37] = Volume of distribution at steady state in rat at 1 mg/kg, iv dosed as crystalline suspension in 20%HPBCD vehicle (20% hydroxypropyl-beta-cyclodextrin/80% water); assay type: ADME, organism-based; design: dose 1 mg/kg, route intravenous; settings: in vivo, read-out: Vdss
[38] = Cmax in mouse at 30 mg/kg, po dosed as crystalline suspension in 20%HPBCD vehicle (20% hydroxypropyl-beta-cyclodextrin/80% water); assay type: ADME, organism-based; design: dose 30 mg/kg, route oral; settings: in vivo
[39] = AUC in rat at 5 mg/kg, po dosed as crystalline suspension in 20%HPBCD vehicle (20% hydroxypropyl-beta-cyclodextrin/80% water); assay type: ADME, organism-based; design: dose 5 mg/kg, route oral; settings: plasma
[40] = Cmax in mouse at 10 mg/kg, po dosed as crystalline suspension in 20%HPBCD vehicle (20% hydroxypropyl-beta-cyclodextrin/80% water); assay type: ADME, organism-based; design: dose 10 mg/kg, route oral; settings: in vivo
[41] = system: COLO 205; experiment: Antiproliferative activity against human COLO205 cells expressing B-raf V600E mutant; assay type: functional, cell-based
[42] = biological target: T1, Serine/threonine-protein kinase B-raf; experiment: Inhibition of His6X-tagged human B-raf V600E mutant expressed in baculovirus infected insect cells coexpressing […] using [gamma33P]ATP after 60 mins by scintillation counting in presence of 1 mM ATP
[43] = Lipophilicity, log P of the compound; assay type: physicochemical; settings: octanol/water
[44] = Cmax in rat at 25 mg/kg, po dosed as crystalline suspension in 20%HPBCD vehicle (20% hydroxypropyl-beta-cyclodextrin/80% water); assay type: ADME, organism-based; design: dose 25 mg/kg, route oral; settings: in vivo
[45] = organism: Homo sapiens; experiment: Selectivity index, ratio of IC50 for wild-type C-raf to IC50 for human Braf V600E mutant
[46] = system: Salmonella typhimurium; experiment: Induction of mutagenesis in Salmonella typhimurium by Ames test; assay type: toxicity, organism-based; settings: salmonella enterica subsp. enterica serovar typhimurium
[47] = Dissociation constant, pKa of the compound at acidic pH; assay type: physicochemical
[48] = Thermodynamic solubility of the compound at 0.5 mg/ml after 24 hrs by shake flask method at pH 7.4; assay type: physicochemical; settings: buffer, read-out: Therm_solubility

Compound: CCCS(=O)(=O)Nc1ccc(F)c(NC(=O)c2csc3c(N)ncnc23)c1Cl
IC50 [1]: 1.1 nM | IC50 [2]: 15 nM

Compound: Nc1ncnc2c(C(=O)Nc3c(Cl)ccc(NS(=O)(=O)CCCF)c3F)csc12
Cmax [3]: 7.93 µM | Activity [4]: Non-toxic | AUC [5]: 3250 µM·h | Ratio IC50 [6]: 11 | EC50 [7]: 24 nM | bioavailability [8]: > 100% | bioavailability [9]: > 100% | solubility thermodynamic at 24 h [10]: 10 µg/mL (≈ 21.6 µM) | IC50 [11]: 22 nM | bioavailability [12]: 68% | fraction unbound [13]: 0.03 | inhibition (INH) [14]: Not Active | AUC [15]: 84 µM·h | AUC [16]: 2970 µM·h | Cmax [17]: 249 µM | EC50 [18]: 2310 nM | Cmax [19]: 44.5 µM | TGI [20]: 130% | ED50 [20]: 1.1 mg/kg | ED90 [20]: 6.2 mg/kg | IC50 [1]: 0.18 nM | clearance [21]: 0.19 mL/min/kg | IC50 [22]: 73 nM | IC50 [23]: 9000 nM | bioavailability [24]: > 100% | clearance [25]: 0.79 mL/min/kg | Vd [26]: 0.12 L/kg | AUC [27]: 867 µM·h | pKa [28]: 3.6 | EC50 [29]: 2 nM | bioavailability [30]: > 100% | inhibition (INH) [31]: Not Active | AUC [32]: 1680 µM·h | bioavailability [33]: 62% | EC50 [34]: > 10000 nM | solubility thermodynamic at 24 h [35]: 700 µg/mL (≈ 1520 µM) | IC50 [36]: > 25000 nM | Vd [37]: 0.14 L/kg | Cmax [38]: 162 µM | AUC [39]: 651 µM·h | IC50 [2]: 4.6 nM | Cmax [40]: 73 µM | EC50 [41]: 5 nM | IC50 [42]: 2 nM | logP [43]: 3.6 | Cmax [44]: 201 µM | Ratio IC50 [45]: 152 | Activity [46]: Non-toxic

Compound: CCCS(=O)(=O)Nc1ccc(F)c(NC(=O)Nc2cc(NCCO)ncn2)c1F
solubility thermodynamic at 24 h [35]: 900 µg/mL (≈ 2090 µM) | IC50 [2]: 3400 nM

pKa [47]: 0.7 | solubility thermodynamic at 24 h [10]: 4 µg/mL (≈ 9.4 µM) | pKa [28]: 0.7 | solubility thermodynamic at 24 h [35]: 3 µg/mL (≈ 7.05 µM) | solubility thermodynamic at 24 h [48]: 9 µg/mL (≈ 21.2 µM)
Compound: CCCS(=O)(=O)Nc1ccc(F)c(C(=O)Nc2cnc3[nH]nc(OC)c3c2)c1F
TGI [20]: 76% | ED50 [20]: 25.2 mg/kg | ED90 [20]: 139 mg/kg
